Measurements from article PMC7014401.

Tests used:
[1] = On-DNA RCM (terminal diene to cyclic alkene), catalyst B (Grubbs-III 2,2'-biphenyldiamine derivative, 10 eq), MgCl2 20000 eq, NH4Cl 12000 eq; details: H2O:EtOH:MeOAc 5:4:1, 0.02 mM, 25.0 °C, 0.5 h
[2] = On-DNA RCM, Grubbs III catalyst A (150 eq), MgCl2 8000 eq (Lu et al. conditions, heterogeneous, rerun here); details: H2O:tBuOH 3:2, 0.09 mM, 25.0 °C, 1.0 h
[3] = On-DNA RCM, Grubbs III catalyst A (10 eq), MgCl2 20000 eq, NH4Cl 12000 eq (Alternative #1); details: H2O:EtOH:MeOAc 5:4:1, 0.02 mM, 25.0 °C, 0.5 h
[4] = On-DNA RCM, Grubbs III catalyst A (10 eq) + 2,2'-biphenyldiamine C (20 eq), MgCl2 20000 eq, NH4Cl 12000 eq (Alternative #2); details: H2O:EtOH:MeOAc 5:4:1, 0.02 mM, 25.0 °C, 0.5 h
[5] = from C=CCCC[C@](C)(NC(=O)[C@H](CCCNC(=N)N)NC(=O)[C@H](Cc1c[nH]cn1)NC(=O)[C@H](CC(C)C)NC(=O)[C@](C)(CCCC=C)NC(=O)[C@H](CCCCN)NC(=O)[C@H](CCCNC(=N)N)NC(=O)[C@H](CCCNC(=N)N)NC(=O)[C@H](CCCNC(=N)N)NC(=O)[C@H](CCCNC(=N)N)NC(C)=O)C(=O)N[C@@H](CC(C)C)C(=O)N[C@@H](CCC(N)=O)C(=O)N[C@@H](CC(=O)O)C(=O)N[C@@H](CCc1cn(CC(=O)NC)nn1)C(N)=O, 21-membered ring
[6] = from C=CCCCC(=O)NCCCC[C@@H](NC(=O)COCCOCCNC(=O)CCCC=C)C(=O)NC, 26-membered ring
[7] = from C=CCCCC(=O)N(CC=C)CC(=O)NC, 8-membered ring
[8] = from C=CCCCC(=O)NCCCC[C@H](NC(=O)CCCC=C)C(=O)NC, 17-membered ring

Question: Which ring closure, conversion by HPLC (% conversion (LC/MS deconvolution)) ([1]; from C=CCCC[C@](C)(NC(=O)[C@H](CCCNC(=N)N)NC(=O)[C@H](Cc1c[nH]cn1)NC(=O)[C@H](CC(C)C)NC(=O)[C@](C)(CCCC=C)NC(=O)[C@H](CCCCN)NC(=O)[C@H](CCCNC(=N)N)NC(=O)[C@H](CCCNC(=N)N)NC(=O)[C@H](CCCNC(=N)N)NC(=O)[C@H](CCCNC(=N)N)NC(C)=O)C(=O)N[C@@H](CC(C)C)C(=O)N[C@@H](CCC(N)=O)C(=O)N[C@@H](CC(=O)O)C(=O)N[C@@H](CCc1cn(CCOCCOCCOCCOCCC(=O)NC)nn1)C(N)=O, 21-membered ring) does the source give for CNC(=O)CCOCCOCCOCCOCCn1cc(CC[C@H](NC(=O)[C@H](CC(=O)O)NC(=O)[C@H](CCC(N)=O)NC(=O)[C@H](CC(C)C)NC(=O)[C@]2(C)CCCC=CCCC[C@](C)(NC(=O)[C@H](CCCCN)NC(=O)[C@H](CCCNC(=N)N)NC(=O)[C@H](CCCNC(=N)N)NC(=O)[C@H](CCCNC(=N)N)NC(=O)[C@H](CCCNC(=N)N)NC(C)=O)C(=O)N[C@@H](CC(C)C)C(=O)N[C@@H](Cc3c[nH]cn3)C(=O)N[C@@H](CCCNC(=N)N)C(=O)N2)C(N)=O)nn1 here?
Answer: 65

Question: Which ring closure, conversion by HPLC (% conversion (LC/MS deconvolution)) [2, 5] does the source give for CNC(=O)Cn1cc(CC[C@H](NC(=O)[C@H](CC(=O)O)NC(=O)[C@H](CCC(N)=O)NC(=O)[C@H](CC(C)C)NC(=O)[C@]2(C)CCCC=CCCC[C@](C)(NC(=O)[C@H](CCCCN)NC(=O)[C@H](CCCNC(=N)N)NC(=O)[C@H](CCCNC(=N)N)NC(=O)[C@H](CCCNC(=N)N)NC(=O)[C@H](CCCNC(=N)N)NC(C)=O)C(=O)N[C@@H](CC(C)C)C(=O)N[C@@H](Cc3c[nH]cn3)C(=O)N[C@@H](CCCNC(=N)N)C(=O)N2)C(N)=O)nn1 here?
Answer: 22

Question: What about the ring closure, conversion by HPLC (% conversion (LC/MS deconvolution)) [1, 5] of the same molecule?
Answer: 52

Question: Which ring closure, conversion by HPLC (% conversion (LC/MS deconvolution)) ([2]; from C=CCCCC(=O)NCCCC[C@H](NC(=O)C[C@H](NC(=O)CC=C)c1cccnc1)C(=O)NC, 19-membered ring) does the source give for CNC(=O)[C@@H]1CCCCNC(=O)CCCC=CCC(=O)N[C@H](c2cccnc2)CC(=O)N1 here?
Answer: 0

Question: Which results are given for CNC(=O)[C@H]1CCCCNC(=O)CCCC=CCCCC(=O)NCCOCCOCC(=O)N1?
Answer: ring closure, conversion by HPLC (% conversion (LC/MS deconvolution)) [3, 6]: 58; ring closure, conversion by HPLC (% conversion (LC/MS deconvolution)) [2, 6]: 23; ring closure, conversion by HPLC (% conversion (LC/MS deconvolution)) [4, 6]: 61; ring closure, conversion by HPLC (% conversion (LC/MS deconvolution)) [1, 6]: 70

Question: With CNC(=O)CN1CC=CCCCC1=O [5-hexenoyl-(N-allyl)Gly-NH-DNA] as the molecule, how does the ring closure, conversion by HPLC (% conversion (LC/MS deconvolution)) [3, 7] read?
Answer: 33

Question: And the ring closure, conversion by HPLC (% conversion (LC/MS deconvolution)) [2, 7]?
Answer: 65

Question: And the ring closure, conversion by HPLC (% conversion (LC/MS deconvolution)) [4, 7]?
Answer: 73

Question: What about the ring closure, conversion by HPLC (% conversion (LC/MS deconvolution)) [1, 7] of the same molecule?
Answer: 62

Question: For CNC(=O)[C@@H]1CCCCNC(=O)CCCC=CCCCC(=O)N1 [5-hexenoyl-Lys(5-hexenoyl)-NH-DNA (56-bp dsDNA)], which ring closure, conversion by HPLC (% conversion (LC/MS deconvolution)) [1, 8] is on record?
Answer: 69

Question: Which ring closure, conversion by HPLC (% conversion (LC/MS deconvolution)) [3, 8] does the source give for CNC(=O)[C@@H]1CCCCNC(=O)CCCC=CCCCC(=O)N1 [5-hexenoyl-Lys(5-hexenoyl)-NH-DNA] here?
Answer: 72

Question: And the ring closure, conversion by HPLC (% conversion (LC/MS deconvolution)) [2, 8]?
Answer: 70

Question: And the ring closure, conversion by HPLC (% conversion (LC/MS deconvolution)) [4, 8]?
Answer: 75

Question: What about the ring closure, conversion by HPLC (% conversion (LC/MS deconvolution)) [1, 8] of the same molecule?
Answer: 78
